Test results taken from publication PMC5562305, “Impact of novel palmitoylated prolactin-releasing peptide analogs on metabolic changes in mice with diet-induced obesity” (PLoS ONE, 2017).
Starred links: 1 amine or outer side, 2 acyl side, 3 side chain; linkers in the order of their positions; H or OH if unused. Residues, ends and D or L forms follow the SMILES beside them. Groups on a side chain read outwards from the residue. *: point of attachment. TTDA(Palmitoyl) = CCCCCCCCCCCCCCCC(=O)NCCCOCCOCCOCCCN*; Suc = O=C(CCC(=O)[*:2])[*:1]

Tested on: urinary metabolites
Assay: NMR-based metabolomics of urine of DIO mice
Format: in vivo, C57BL/6 mice
Parameters: key to DMA, Mean / DMG, Mean / MA, Mean / TMA, Mean / acetate, Mean / allantoin, Mean / carnitine, Mean / choline, Mean / cis-aconitate, Mean / creatine+creatinine, Mean / creatine, Mean / creatinine, Mean / ethanolamine, Mean / formate, Mean / galactose, Mean / glucose, Mean / glycine, Mean / lactate, Mean / succinate, Mean / vinylacetylglycine, Mean: TSA-normalized intensity of the metabolite's representative NMR signal
Settings: urine of DIO mice, NMR metabolomics
Experimental: Urine samples for NMR-based metabolomics were collected prior to the start of the interventions and at the end of the experiment. For overnight urine collection (from 5 pm to 8 am), the mice were housed in individual metabolic cages (Tecniplast, Buguggiate, Italy) without access to food. Samples were collected with the addition of NaN3 and stored at -80°C until NMR analysis.
The urine samples were thawed at room temperature and centrifuged at 13 684 x g for 5 min prior to the NMR experiments. A 200-μl aliquot of supernatant was diluted with 340 μl of H2O mixed with 60 μl of phosphate buffer (1.5 M KH2PO4 in D2O containing 2 mM NaN3 and 0.1% trimethylsilyl propionic acid (TSP), pH 7.4) and transferred to a 5-mm NMR tube. The NMR data were acquired with a 600 MHz Bruker Avance III spectrometer (Bruker BioSpin, Rheinstetten, Germany) equipped with a 5-mm TCI cryogenic probe head. All of the experiments were performed at 300 K. Automatic tuning, matching, shimming and adjusting of the 90° pulse length were performed for each sample.
As mouse urine naturally contains urinary proteins, the NMR spectra were acquired using a Carr-Purcell-Meiboom-Gill (CPMG) pulse sequence with water presaturation (Bruker pulse sequence cpmgpr1d) to eliminate the strong protein background. […] For better metabolite identification, a short J-resolved experiment with presaturation (NS = 2, SW = 16 ppm, TD = 8k, number of increments = 40, SW = 78.125 Hz in the indirect dimension, and relaxation delay = 2 s) was executed for all samples. Additional two-dimensional ^1H-^1H correlation spectroscopy (COSY) and ^1H-^13C heteronuclear multiple-quantum correlation (HMQC) experiments (Bruker pulse sequences cosygpprqf and hmqcphpr) were performed for selected samples.
The acquired data were processed using Topspin 3.2 software (Bruker BioSpin, Rheinstetten, Germany). Line broadening of 0.3 Hz was applied on free induction decays (FIDs) prior to Fourier transformation. The spectra were automatically phased, baseline corrected and referenced to the signal of TSP (0.00 ppm).
The assignment of individual metabolites was achieved by comparing the proton spectra with the spectra of pure metabolites using Chenomx NMR Suite 7.6 (Chenomx Inc., Edmonton, AB, Canada), the HMDB database and previously published metabolomic data. The identification of metabolites was supported through J-resolved and COSY experiments and, if possible, confirmed using carbon chemical shifts extracted from the HMQC spectra.
For quantitation of individual metabolites, the CPMG spectra were uniformly binned in the range of 0.10–10.00 ppm to 0.01-ppm intervals using AMIX software (Bruker BioSpin, Rheinstetten, Germany). This procedure reduced the dimensionality of the data, eliminated chemical shift variations and thus simplified the reproducible automatic quantification. Regions corresponding to water (4.60–4.90 ppm) and urea (5.60–6.00 ppm) were removed prior to analysis. As the dilutions of the original urine samples differed (due to the differences in water intake during urine collection), all of the spectra were normalized to the total spectral area (TSA). For each identified metabolite, one representative signal was chosen and then quantified as the sum of appropriate adjacent 0.01-ppm bins to cover the whole signal width. The metabolite concentration was expressed as the TSA-normalized intensity of the respective signal. For selection of an appropriate statistical method (parametric or non-parametric) the Lilliefors test of normality was performed. […] Metabolite alterations with a P < 0.05 were considered statistically significant. Statistical analysis was performed using Matlab software (“MATLAB version 8.6 (R2015b). Natick, Massachusetts: The MathWorks Inc., 2015.,” n.d.). […]

[1] = difference of analog mean vs saline mean

CCCCCCCCCCCCCCCC(=O)NCCCOCCOCCOCCCNC(=O)CCC(=O)NCCCC[C@H](NC(=O)[C@@H](NC(=O)[C@H](CCC(=O)O)NC(=O)[C@H](CCSC)NC(=O)[C@H](CO)NC(=O)[C@H](Cc1c[nH]cn1)NC(=O)[C@H](CCCNC(=N)N)NC(=O)[C@H](Cc1c[nH]cn1)NC(=O)[C@@H](NC(=O)[C@H](CCCNC(=N)N)NC(=O)[C@@H](N)CO)[C@@H](C)O)[C@@H](C)CC)C(=O)N[C@H](C(=O)N1CCC[C@H]1C(=O)N[C@@H](CC(=O)O)C(=O)N[C@H](C(=O)N[C@@H](CC(N)=O)C(=O)N1CCC[C@H]1C(=O)N[C@@H](C)C(=O)N[C@@H](Cc1c[nH]c2ccccc12)C(=O)N[C@@H](Cc1ccc(O)cc1)C(=O)N[C@@H](C)C(=O)N[C@@H](CO)C(=O)N[C@@H](CCCNC(=N)N)C(=O)NCC(=O)N[C@H](C(=O)N[C@@H](CCCNC(=N)N)C(=O)N1CCC[C@H]1C(=O)N[C@H](C(=O)NCC(=O)N[C@@H](CCCNC(=N)N)C(=O)N[C@@H](Cc1ccccc1)C(N)=O)C(C)C)[C@@H](C)CC)[C@@H](C)CC)[C@@H](C)O [analog 2] (H-SRTHRHSMEIK([Suc-TTDA(Palmitoyl)])TPDINPAWYASRGIRPVGRF-NH2; N-terminus assumed)
creatine, Saline/analog % [1]: -0.033%
creatinine, Saline/analog % [1]: 0.035%
ethanolamine, Saline/analog % [1]: -0.025%
formate, Saline/analog % [1]: 0.032%
fumarate, Saline/analog % [1]: -0.055%
galactose, Saline/analog % [1]: 0.041%
glucose, Saline/analog % [1]: -0.039%
glycine, Saline/analog % [1]: 0.016%
hexanoylglycine + acids (0.88 ppm), Saline/analog % [1]: 0.157%
hippurate (7.55 ppm), Saline/analog % [1]: 0.047%
hippurate (7.64 ppm), Saline/analog % [1]: 0.039%
hippurate (7.84 ppm), Saline/analog % [1]: 0.035%
lactate, Saline/analog % [1]: 0.156%
multiplet acids (1.6 ppm), Saline/analog % [1]: 0.157%
putrescin, Saline/analog % [1]: -0.042%
succinate, Saline/analog % [1]: 0.163%
taurine (3.27 ppm), Saline/analog % [1]: -0.196%
taurine (3.43 ppm), Saline/analog % [1]: -0.239%
trigonelline (8.84 ppm), Saline/analog % [1]: -0.008%
trigonelline (9.13 ppm), Saline/analog % [1]: -0.024%
vinylacetylglycine, Saline/analog % [1]: 0.163%
2-OG (2.45 ppm), Mean (group mean): 11.956
2-OG (3.01 ppm), Mean (group mean): 10.103
2-PY (8.33 ppm), Mean (group mean): 0.992
3-indoxylsulfate (7.51 ppm), Mean (group mean): 1.459
3-indoxylsulfate (7.71 ppm), Mean (group mean): 0.842
4-PY (7.97 ppm), Mean (group mean): 1.710
4-PY (8.55 ppm), Mean (group mean): 0.484
DMA, Mean (group mean): 5.145
DMG, Mean (group mean): 1.928
MA, Mean (group mean): 2.920
MNA (8.90 ppm), Mean (group mean): 0.407
MNA (8.97 ppm), Mean (group mean): 0.391
MNA (9.265 ppm), Mean (group mean): 0.413
MNA-Nox (7.75 ppm), Mean (group mean): 0.969
MNA-Nox (8.13 ppm), Mean (group mean): 0.725
MNA-Nox (8.49 ppm), Mean (group mean): 0.458
MNA-Nox (8.75 ppm), Mean (group mean): 0.434
N-carbamoylalanine (2.38 ppm), Mean (group mean): 10.919
N-carbamoylalanine (3.31 ppm), Mean (group mean): 9.060
N-isovalerylglycine + oxovalerate (0.92 ppm), Mean (group mean): 15.384
TMA, Mean (group mean): 10.220
acetate, Mean (group mean): 4.384
allantoin, Mean (group mean): 21.272
carnitine, Mean (group mean): 6.113
choline, Mean (group mean): 2.053
cis-aconitate, Mean (group mean): 9.014
citrate (2.55 ppm), Mean (group mean): 31.737
citrate (2.69 ppm), Mean (group mean): 28.801
creatine+creatinine, Mean (group mean): 23.782
creatine, Mean (group mean): 6.742
creatinine, Mean (group mean): 11.494
ethanolamine, Mean (group mean): 7.749
formate, Mean (group mean): 0.205
fumarate, Mean (group mean): 0.167
galactose, Mean (group mean): 0.806
glucose, Mean (group mean): 3.486
glycine, Mean (group mean): 6.185
hexanoylglycine + acids (0.88 ppm), Mean (group mean): 15.251
hippurate (7.55 ppm), Mean (group mean): 4.857
hippurate (7.64 ppm), Mean (group mean): 2.465
hippurate (7.84 ppm), Mean (group mean): 5.092
lactate, Mean (group mean): 7.122
multiplet acids (1.6 ppm), Mean (group mean): 12.357
putrescin, Mean (group mean): 8.544
succinate, Mean (group mean): 12.532
taurine (3.27 ppm), Mean (group mean): 20.714
taurine (3.43 ppm), Mean (group mean): 17.197
trigonelline (8.84 ppm), Mean (group mean): 0.310
trigonelline (9.13 ppm), Mean (group mean): 0.125
vinylacetylglycine, Mean (group mean): 3.494
